For six cell lines, relative viability results are on record in the supplement of paper PMC10307832.

What all share (assay): relative viability (nuclei count vs DMSO), 5 days (fraction); higher = more cells survive
Compound in the experiment “RAF265 + AZD7762”: Cn1c(Nc2ccc(C(F)(F)F)cc2)nc2cc(Oc3ccnc(-c4ncc(C(F)(F)F)[nH]4)c3)ccc21 [RAF265] + NC(=O)Nc1cc(-c2cccc(F)c2)sc1C(=O)N[C@H]1CCCNC1 [AZD7762] (partner 0.2 µM)
Put shortly: (§1)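 For relative viability, nuclei counts in treated wells were divided by those in vehicle wells. Lung cancer cell lines had been pin-tool dosed in 1536-well plates the day after seeding and cultured for 5 days, then fixed and stained in one step (final 0.05% Triton X-100, 1% formaldehyde, 1 ug/ml Hoechst) and imaged at 4×. Doses were one drug alone or a fixed anchor-drug dose plus five library-drug doses (not always all listed) in √10 steps, and values are duplicate-plate medians.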

Compound in the experiment “RAF265 + Palbociclib”: Cn1c(Nc2ccc(C(F)(F)F)cc2)nc2cc(Oc3ccnc(-c4ncc(C(F)(F)F)[nH]4)c3)ccc21 [RAF265] + CC(=O)c1c(C)c2cnc(Nc3ccc(N4CCNCC4)cn3)nc2n(C2CCCC2)c1=O [Palbociclib] (partner 0.5 µM)
Put shortly: as §1

Compound in the experiment “IPA-3 + Pictilisib”: C1=CC=C2C(=C1)C=CC(=C2SSC3=C(C=CC4=CC=CC=C43)O)O [IPA-3] + CS(=O)(=O)N1CCN(Cc2cc3nc(-c4cccc5[nH]ncc45)nc(N4CCOCC4)c3s2)CC1 [Pictilisib] (partner 1 µM)
The procedure, abridged: as §1

Compound in the experiment “RAF265 + Trametinib”: Cn1c(Nc2ccc(C(F)(F)F)cc2)nc2cc(Oc3ccnc(-c4ncc(C(F)(F)F)[nH]4)c3)ccc21 [RAF265] + CC(=O)Nc1cccc(-n2c(=O)n(C3CC3)c(=O)c3c(Nc4ccc(I)cc4F)n(C)c(=O)c(C)c32)c1 [Trametinib] (partner 0.02 µM)
Put shortly: as §1

On to NCI-H2347, for which the relative viability with RAF265 + AZD7762 (first compound 0.01 µM) was 0.74; in the experiment with RAF265 + AZD7762 (first compound 0.03162 µM), 0.7; with RAF265 + AZD7762 (first compound 0.1 µM) it was 0.832; with RAF265 + AZD7762 (first compound 0.3162 µM) it was 0.46; in the experiment with RAF265 + AZD7762 (first compound 1 µM), 0.22; with RAF265 + Palbociclib (first compound 0.01 µM), 0.485. In addition, the relative viability in the experiment with RAF265 + Palbociclib (first compound 0.03162 µM) turned out to be 0.405; with RAF265 + Palbociclib (first compound 0.1 µM), 0.406; with RAF265 + Palbociclib (first compound 0.3162 µM), 0.391; with RAF265 + Palbociclib (first compound 1 µM), 0.363; in the experiment with IPA-3 + Pictilisib (first compound 0.2 µM), 0.423; in the experiment with IPA-3 + Pictilisib (first compound 0.6325 µM), 0.644. In addition, the relative viability with IPA-3 + Pictilisib (first compound 2 µM) is 0.522; with IPA-3 + Pictilisib (first compound 6.325 µM) it was 0.717; in the experiment with IPA-3 + Pictilisib (first compound 20 µM), 0.605; with RAF265 + Trametinib (first compound 0.01 µM), 0.266; in the experiment with RAF265 + Trametinib (first compound 0.03162 µM) it was 0.292; with RAF265 + Trametinib (first compound 0.1 µM), 0.283. In addition, the relative viability is 0.22 with RAF265 + Trametinib (first compound 0.3162 µM) and 0.227 in the experiment with RAF265 + Trametinib (first compound 1 µM).

For NCI-H2405, the relative viability in the experiment with RAF265 + AZD7762 (first compound 0.01 µM) is 0.849; with RAF265 + AZD7762 (first compound 0.03162 µM), 0.723; with RAF265 + AZD7762 (first compound 0.1 µM), 0.634; in the experiment with RAF265 + AZD7762 (first compound 0.3162 µM), 0.549; in the experiment with RAF265 + AZD7762 (first compound 1 µM), 0.326; with RAF265 + Palbociclib (first compound 0.01 µM), 0.552. Moreover, the relative viability in the experiment with RAF265 + Palbociclib (first compound 0.03162 µM) is 0.497; with RAF265 + Palbociclib (first compound 0.1 µM), 0.499; with RAF265 + Palbociclib (first compound 0.3162 µM), 0.491; with RAF265 + Palbociclib (first compound 1 µM), 0.282; with IPA-3 + Pictilisib (first compound 0.2 µM), 0.458; with IPA-3 + Pictilisib (first compound 0.6325 µM), 0.382. The relative viability with IPA-3 + Pictilisib (first compound 2 µM) is 0.354; in the experiment with IPA-3 + Pictilisib (first compound 6.325 µM), 0.519; in the experiment with IPA-3 + Pictilisib (first compound 20 µM) it was 0.416; with RAF265 + Trametinib (first compound 0.01 µM), 0.605; with RAF265 + Trametinib (first compound 0.03162 µM), 0.639; with RAF265 + Trametinib (first compound 0.1 µM), 0.539. Besides, the values for the relative viability with RAF265 + Trametinib (first compound 0.3162 µM) and with RAF265 + Trametinib (first compound 1 µM) were 0.474 and 0.383, respectively.

As to NCI-H3122, the relative viability with RAF265 + AZD7762 (first compound 0.01 µM) amounted to 1.03; with RAF265 + AZD7762 (first compound 0.03162 µM), 1.17; with RAF265 + AZD7762 (first compound 0.1 µM), 1.02; in the experiment with RAF265 + AZD7762 (first compound 0.3162 µM), 0.949; with RAF265 + AZD7762 (first compound 1 µM) it was 0.862; with RAF265 + Palbociclib (first compound 0.01 µM), 0.18. The relative viability in the experiment with RAF265 + Palbociclib (first compound 0.03162 µM) was 0.216; in the experiment with RAF265 + Palbociclib (first compound 0.1 µM) it was 0.19; with RAF265 + Palbociclib (first compound 0.3162 µM), 0.198; with RAF265 + Palbociclib (first compound 1 µM) it was 0.19; in the experiment with IPA-3 + Pictilisib (first compound 0.2 µM) it was 0.612; in the experiment with IPA-3 + Pictilisib (first compound 0.6325 µM) it was 0.566. Besides, the relative viability stood at 0.559 with IPA-3 + Pictilisib (first compound 2 µM); 0.697 with IPA-3 + Pictilisib (first compound 6.325 µM); 0.594 with IPA-3 + Pictilisib (first compound 20 µM); 0.26 with RAF265 + Trametinib (first compound 0.01 µM); 0.203 in the experiment with RAF265 + Trametinib (first compound 0.03162 µM); 0.21 with RAF265 + Trametinib (first compound 0.1 µM). Further, the relative viability with RAF265 + Trametinib (first compound 0.3162 µM) is 0.208; in the experiment with RAF265 + Trametinib (first compound 1 µM), 0.173.

For PC-3 [JPC-3], the relative viability in the experiment with RAF265 + AZD7762 (first compound 0.01 µM) came out at 0.879; in the experiment with RAF265 + AZD7762 (first compound 0.03162 µM), 0.771; with RAF265 + AZD7762 (first compound 0.1 µM), 0.742; with RAF265 + AZD7762 (first compound 0.3162 µM) it was 0.445; in the experiment with RAF265 + AZD7762 (first compound 1 µM), 0.479; in the experiment with RAF265 + Palbociclib (first compound 0.01 µM) it was 0.55. Besides, the relative viability with RAF265 + Palbociclib (first compound 0.03162 µM) is 0.538; with RAF265 + Palbociclib (first compound 0.1 µM), 0.524; with RAF265 + Palbociclib (first compound 0.3162 µM), 0.437; with RAF265 + Palbociclib (first compound 1 µM) it was 0.429; with IPA-3 + Pictilisib (first compound 0.2 µM), 0.863; with IPA-3 + Pictilisib (first compound 0.6325 µM), 0.774. For the same cell line, the relative viability was found to be 0.696 with IPA-3 + Pictilisib (first compound 2 µM); 0.668 with IPA-3 + Pictilisib (first compound 6.325 µM); 0.772 in the experiment with IPA-3 + Pictilisib (first compound 20 µM); 0.708 with RAF265 + Trametinib (first compound 0.01 µM); 0.708 with RAF265 + Trametinib (first compound 0.03162 µM); 0.761 with RAF265 + Trametinib (first compound 0.1 µM). For the same cell line, the relative viability with RAF265 + Trametinib (first compound 0.3162 µM) turned out to be 0.469; with RAF265 + Trametinib (first compound 1 µM) it was 0.466.

In the case of PC-14, the relative viability with RAF265 + AZD7762 (first compound 0.01 µM) was determined as 0.424; with RAF265 + AZD7762 (first compound 0.03162 µM), 0.451; with RAF265 + AZD7762 (first compound 0.1 µM) it was 0.369; with RAF265 + AZD7762 (first compound 1 µM) it was 0.378; with RAF265 + Palbociclib (first compound 0.01 µM), 0.47; with RAF265 + Palbociclib (first compound 0.03162 µM) it was 0.495. Also, the relative viability with RAF265 + Palbociclib (first compound 0.1 µM) is 0.519; with RAF265 + Palbociclib (first compound 1 µM), 0.35; in the experiment with IPA-3 + Pictilisib (first compound 0.2 µM) it was 1.1; in the experiment with IPA-3 + Pictilisib (first compound 0.6325 µM) it was 0.562; with IPA-3 + Pictilisib (first compound 2 µM), 0.804; with IPA-3 + Pictilisib (first compound 6.325 µM) it was 0.678. Further, the relative viability turned out to be 1.19 with IPA-3 + Pictilisib (first compound 20 µM); 0.814 with RAF265 + Trametinib (first compound 0.01 µM); 0.711 in the experiment with RAF265 + Trametinib (first compound 0.03162 µM); 0.716 with RAF265 + Trametinib (first compound 0.1 µM); 0.447 in the experiment with RAF265 + Trametinib (first compound 1 µM).

Consider RERF-LC-KJ, for which the relative viability is 1.1 with RAF265 + AZD7762 (first compound 0.01 µM); 1.03 in the experiment with RAF265 + AZD7762 (first compound 0.03162 µM); 0.765 with RAF265 + AZD7762 (first compound 0.1 µM); 0.756 with RAF265 + AZD7762 (first compound 0.3162 µM); 0.557 with RAF265 + AZD7762 (first compound 1 µM); 1.06 with RAF265 + Palbociclib (first compound 0.01 µM). The relative viability with RAF265 + Palbociclib (first compound 0.03162 µM) is 1.23; with RAF265 + Palbociclib (first compound 0.1 µM), 1.05; with RAF265 + Palbociclib (first compound 0.3162 µM), 0.885; in the experiment with RAF265 + Palbociclib (first compound 1 µM), 0.832; in the experiment with IPA-3 + Pictilisib (first compound 0.2 µM) it was 0.626; with IPA-3 + Pictilisib (first compound 0.6325 µM), 0.501. Besides, the relative viability in the experiment with IPA-3 + Pictilisib (first compound 2 µM) came to 0.537; with IPA-3 + Pictilisib (first compound 6.325 µM) it was 0.38; in the experiment with IPA-3 + Pictilisib (first compound 20 µM) it was 0.486; in the experiment with RAF265 + Trametinib (first compound 0.01 µM), 0.877; with RAF265 + Trametinib (first compound 0.03162 µM) it was 0.764; with RAF265 + Trametinib (first compound 0.1 µM), 0.867. Moreover, the relative viability in the experiment with RAF265 + Trametinib (first compound 0.3162 µM) is 0.638; with RAF265 + Trametinib (first compound 1 µM), 0.546.
